Source: patent US6472348B1, “Pyridone derivatives and herbicides” (Kumiai Chemical Industry Co., Ltd., priority 1996, dated 2002)

Tests used:
soybean (Gl) = assay: Test Example 6: crop plant selectivity by upland field soil treatment (soybean), phytotoxicity; type: in vivo; design: scale not given here; conditions: dose 6.3 g ai/10a, 21st day after application
In short: (§1)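 Scoring took place 21 days after treatment using a set grading standard, covering both weed control and soybean injury. Seeds of soybean and weed species went into sand-filled pots under a soil cover before soil treatment and greenhouse culture.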

corn (Ze) = assay: Test Example 11: crop plant selectivity by upland field foliage treatment (corn), phytotoxicity; conditions: corn; foliage treatment; dose 1.6 g ai/10a; evaluated on 14th day after treatment; index per Table 47
In short: (§2)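 Corn and the weed species were sown together in sand-filled pots and grown in a greenhouse for 2 weeks before foliar treatment. Herbicidal effect was scored on day 14 after treatment against a graded standard scale, with corn phytotoxicity scored alongside.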

Johnsongrass (So) = assay: Test Example 6: crop plant selectivity by upland field soil treatment (soybean), herbicidal effects; type: in vivo; conditions: dose 6.3 g ai/10a, 21st day after application
Method: (§3) (Test on Crop Plant Selectivity by Upland Field Soil Treatment)
(§4) In a plastic pot (surface area: 600 cm^2) filled with sand, soybean (Gl), Diaitaria ciliaris (Di), green foxtail (Se), Johnsongrass (So), pale smartweed (Po), slender amaranth (Am), common lambsquarters (Ch) and China jute (Ab) were sown and covered with soil. […] The plants were then cultured in a green house, and the evaluation of the herbicidal effects and phytotoxicity was conducted on the 21st day after the application in accordance with the standards as identified in Table 47. Symbol—represents “not tested”.

Diaitaria ciliaris (Di) [1] = assay: as above; type: in vivo; conditions: dose 6.3 g ai/10a, 21st day after application
Method: as §3, §4

[2] = tested on: common lambsquarters (Ch); assay: as above; type: in vivo; design: scale not given here; conditions: dose 6.3 g ai/10a, 21st day after application
In short: as §1

slender amaranth (Am) [3] = assay: as above; type: in vivo; design: scale not given here; conditions: dose 6.3 g ai/10a, 21st day after application
In short: as §1

China jute (Ab) [4] = assay: as above; type: in vivo; design: scale not given here; conditions: dose 6.3 g ai/10a, 21st day after application
In short: as §1

pale smartweed (Po) [5] = assay: as above; type: in vivo; design: scale not given here; conditions: dose 6.3 g ai/10a, 21st day after application
In short: as §1

monochoria (Mo) = assay: Test Example 1: herbicidal effects by paddy field soil treatment; type: in vivo; conditions: 100 g of the active ingredient per 10 ares, 21st day after the application, index 0-5 of Table 47;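 note: grade of growth control; 5 = at least 90%; 4 = 70 to 90%; 3 = 50 to 70%; 2 = 30 to 50%; 1 = 10 to 30%; 0 = under 10%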
In short: (§5)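 Greenhouse pot test in flooded paddy soil, dosed at 100 g a.i. per 10 ares; effect scored on day 21.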

barnyardgrass (Ec) [6] = assay: as above; type: in vivo; conditions: 100 g of the active ingredient per 10 ares, 21st day after the application, index 0-5 of Table 47
In short: as §5

bulrush (Sc) = assay: as above; type: in vivo; conditions: 100 g of the active ingredient per 10 ares, 21st day after the application, index 0-5 of Table 47;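 note: grade of growth control; 5 = at least 90%; 4 = 70 to 90%; 3 = 50 to 70%; 2 = 30 to 50%; 1 = 10 to 30%; 0 = under 10%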
In short: as §5

[7] = tested on: common lambsquarters (Ch); assay: Test Example 11: crop plant selectivity by upland field foliage treatment (corn), herbicidal effects; type: in vivo; design: scale not given here; conditions: common lambsquarters; foliage treatment; dose 1.6 g ai/10a; evaluated on 14th day after treatment; index per Table 47
In short: as §2

slender amaranth (Am) [8] = assay: as above; type: in vivo; design: scale not given here; conditions: slender amaranth; foliage treatment; dose 1.6 g ai/10a; evaluated on 14th day after treatment; index per Table 47
In short: as §2

China jute (Ab) [9] = assay: as above; type: in vivo; design: scale not given here; conditions: China jute; foliage treatment; dose 1.6 g ai/10a; evaluated on 14th day after treatment; index per Table 47
In short: as §2

pale smartweed (Po) [10] = assay: as above; type: in vivo; design: scale not given here; conditions: pale smartweed; foliage treatment; dose 1.6 g ai/10a; evaluated on 14th day after treatment; index per Table 47
In short: as §2

Diaitaria ciliaris (Di) [11] = assay: Test Example 4: crop plant selectivity by upland field soil treatment (cotton), herbicidal effects; type: in vivo; conditions: dose 6.3 g ai/10 a, evaluated 21st day after application
Method: as §3
In a plastic pot (surface area: 600 cm^2) filled with sand, cotton (Go), Diaitaria ciliaris (Di), green foxtail (Se), pale smartweed (Po), slender amaranth (Am), common lambsquarters (Ch) and China jute (Ab) were sown and covered with soil. […] The plants were then cultured in a green house, and the evaluation of the herbicidal effects and phytotoxicity was conducted on the 21st day after the application in accordance with the standards as identified in Table 47. Symbol—represents “not tested”.

cotton (Go) = assay: Test Example 4: crop plant selectivity by upland field soil treatment (cotton), phytotoxicity; type: in vivo; design: scale not given here; conditions: dose 6.3 g ai/10 a, evaluated 21st day after application
In short: (§6)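 Upland soil-treatment selectivity test: scoring on day 21 post-application in a greenhouse, rating crop phytotoxicity on cotton and herbicidal effect on co-sown weeds. Seeds were sown in sand-filled pots and covered with soil before treatment.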

Digitaria ciliaris (Di) = assay: Test Example 2: herbicidal effects by upland field soil treatment; type: in vivo; conditions: 100 g of the active ingredient per 10 ares, evaluated on the 21st day after application;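 note: grade of growth control; 5 = at least 90%; 4 = 70 to 90%; 3 = 50 to 70%; 2 = 30 to 50%; 1 = 10 to 30%; 0 = under 10%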
Source text: (§7) (Test on Herbicidal Effects by Upland Field Soil Treatment)

[12] = tested on: common lambsquarters (Ch); assay: as above; type: in vivo; conditions: 100 g of the active ingredient per 10 ares, evaluated on the 21st day after application
Source text: as §7

slender amaranth (Am) [13] = assay: as above; type: in vivo; conditions: 100 g of the active ingredient per 10 ares, evaluated on the 21st day after application
Source text: as §7

pale smartweed (Po) [14] = assay: as above; type: in vivo; conditions: 100 g of the active ingredient per 10 ares, evaluated on the 21st day after application
Source text: as §7

barnyardgrass (Ec) [15] = assay: as above; type: in vivo; conditions: 100 g of the active ingredient per 10 ares, evaluated on the 21st day after application
Source text: as §7

rice flatsedge (Ci) [16] = assay: as above; type: in vivo; conditions: 100 g of the active ingredient per 10 ares, evaluated on the 21st day after application
Source text: as §7

[17] = tested on: common lambsquarters (Ch); assay: Test Example 3: herbicidal effects by upland field foliage treatment; type: in vivo; design: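 grade of growth control; 5 = at least 90%; 4 = 70 to 90%; 3 = 50 to 70%; 2 = 30 to 50%; 1 = 10 to 30%; 0 = under 10%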; conditions: 100 g active ingredient per 10 ares, evaluated 14th day after treatment
In short: (§8)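 Scoring used a standard effect scale on the 14th day post-treatment, with plants held in a greenhouse throughout. Foliar application was made to weeds raised from seed in sand-filled pots for 2 weeks.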

slender amaranth (Am) [18] = assay: as above; type: in vivo; design: scale not given here; conditions: 100 g active ingredient per 10 ares, evaluated 14th day after treatment
In short: as §8

pale smartweed (Po) [19] = assay: as above; type: in vivo; design: scale not given here; conditions: 100 g active ingredient per 10 ares, evaluated 14th day after treatment
In short: as §8

Diaitaria ciliaris (Di) [20] = assay: as above; type: in vivo; design: scale not given here; conditions: 100 g active ingredient per 10 ares, evaluated 14th day after treatment
In short: as §8

barnyardgrass (Ec) [21] = assay: as above; type: in vivo; design: scale not given here; conditions: 100 g active ingredient per 10 ares, evaluated 14th day after treatment
In short: as §8

rice flatsedge (Ci) [22] = assay: as above; type: in vivo; design: scale not given here; conditions: 100 g active ingredient per 10 ares, evaluated 14th day after treatment
In short: as §8

[23] = tested on: common lambsquarters (Ch); assay: Test Example 4: crop plant selectivity by upland field soil treatment (cotton), herbicidal effects; type: in vivo; design: scale not given here; conditions: dose 6.3 g ai/10 a, evaluated 21st day after application
In short: as §6

slender amaranth (Am) [24] = assay: as above; type: in vivo; design: scale not given here; conditions: dose 6.3 g ai/10 a, evaluated 21st day after application
In short: as §6

China jute (Ab) [25] = assay: as above; type: in vivo; design: scale not given here; conditions: dose 6.3 g ai/10 a, evaluated 21st day after application
In short: as §6

pale smartweed (Po) [26] = assay: as above; type: in vivo; design: scale not given here; conditions: dose 6.3 g ai/10 a, evaluated 21st day after application
In short: as §6

C#CCOc1cc(-c2cn(C)c(C(F)(F)F)cc2=O)c(F)cc1Cl [Compound 6-9]
1: Phytotoxicity Ze (corn (Ze))
0: Phytotoxicity Gl (soybean (Gl)) | Phytotoxicity Go (cotton (Go))
5: Herbicidal effects So (Johnsongrass (So)) | Herbicidal effects Di (Diaitaria ciliaris (Di) [1]) | Herbicidal effects Ch [2] | Herbicidal effects Am (slender amaranth (Am) [3]) | Herbicidal effects Ab (China jute (Ab) [4]) | Herbicidal effects Po (pale smartweed (Po) [5]) | Herbicidal effects Mo (monochoria (Mo)) | Herbicidal effects Ec (barnyardgrass (Ec) [6]) | Herbicidal effects Sc (bulrush (Sc)) | Herbicidal effects Ch [7] | Herbicidal effects Am (slender amaranth (Am) [8]) | Herbicidal effects Ab (China jute (Ab) [9]) | Herbicidal effects Po (pale smartweed (Po) [10]) | Herbicidal effects Di (Diaitaria ciliaris (Di) [11]) | Herbicidal effects Di (Digitaria ciliaris (Di)) | Herbicidal effects Ch [12] | Herbicidal effects Am (slender amaranth (Am) [13]) | Herbicidal effects Po (pale smartweed (Po) [14]) | Herbicidal effects Ec (barnyardgrass (Ec) [15]) | Herbicidal effects Ci (rice flatsedge (Ci) [16]) | Herbicidal effects Ch [17] | Herbicidal effects Am (slender amaranth (Am) [18]) | Herbicidal effects Po (pale smartweed (Po) [19]) | Herbicidal effects Di (Diaitaria ciliaris (Di) [20]) | Herbicidal effects Ec (barnyardgrass (Ec) [21]) | Herbicidal effects Ci (rice flatsedge (Ci) [22]) | Herbicidal effects Ch [23] | Herbicidal effects Am (slender amaranth (Am) [24]) | Herbicidal effects Ab (China jute (Ab) [25]) | Herbicidal effects Po (pale smartweed (Po) [26])
